Ten compounds from patent publication EP0791603A2, “Pure somatostatin antagonist and methods of use thereof” (American Cyanamid Company, priority 1996, dated 1997) can be followed below.

Molecules are shown by their SMILES. Positions of bridges follow the written chain, without caps; N, C: chain ends. Non-standard residues stand in square brackets, D forms with d. Residues, ends and D or L forms follow the SMILES beside them. NMePhe(4-NO2) = CN[C@@H](Cc1ccc([N+](=O)[O-])cc1)C(=O)O; Phe(4-NO2) = N[C@@H](Cc1ccc([N+](=O)[O-])cc1)C(=O)O; 2Nal = N[C@@H](Cc1ccc2ccccc2c1)C(=O)O; d2Nal = N[C@H](Cc1ccc2ccccc2c1)C(=O)O; Abu = CC[C@H](N)C(=O)O

Chain of SSTR2 (P30680 whole entry): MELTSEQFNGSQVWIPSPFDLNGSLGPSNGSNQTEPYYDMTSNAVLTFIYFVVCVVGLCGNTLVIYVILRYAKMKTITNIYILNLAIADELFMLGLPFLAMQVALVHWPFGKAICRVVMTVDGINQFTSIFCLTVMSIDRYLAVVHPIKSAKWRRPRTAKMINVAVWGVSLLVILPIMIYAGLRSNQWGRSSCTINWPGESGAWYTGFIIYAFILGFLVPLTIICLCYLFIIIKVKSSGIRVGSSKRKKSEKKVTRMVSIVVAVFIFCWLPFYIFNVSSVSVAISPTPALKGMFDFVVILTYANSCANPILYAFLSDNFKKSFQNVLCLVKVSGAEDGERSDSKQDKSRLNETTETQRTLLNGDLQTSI

In this test the target is SSTR2 (Rattus norvegicus, UniProt P30680). Put plainly: Cyclic AMP accumulation in intact cells (adrenal binding protein method). Format: cell-based. Particulars: forskalin stimulated c-AMP levels in intact cells, 15 minutes at 37°C; read-out: % IA (% intrinsic activity). An excerpt:
Cyclic AMP accumulation assays are used to determine the functional coupling of somatostatin receptors to effectors. All five cloned somatostatin receptors inhibit cyclic AMP accumulation and adenylyl cyclone activity ^1 ^,2,3,4,5. This evaluation measures cyclic AMP accumulation from intact cells using the adrenal binding protein method. Signal transduction by somatostatin is mediated by lowering intracellular c-AMP levels. This functional assay measures the ability of the test compound to inhibit the effect of somatostatin on forskalin stimulated c-AMP levels. ^1 K. Yasuda, S. Rens-Damiano, C. D. Breder, S. F. Law, C. B. Saper, T. Reisine and G. I. Bell, J. Biol. Chem. 267,20422-20428 (1992). ^2 J. F. Bruno, Y. Xu, J. Song and M. Berelowitz, Proc. Natl. Acad. Sci. USA 89, 11151-11155 (1992). ^3 A. M. O'Carrol, S. J. Lolait, M. König and L. Mahan, Mol. Pharmacol. 42, 939-946 (1992). ^4 J. R. Hadcock, J. Strnad and C. M. Eppler, Mol. Pharmacol. 45, 410-416 (1994). ^5 J. Strnad, C. M. Eppler, M. Corbett and J. R. Hadcock, Biochem. Biophys. Res. Commun.191, 968-976 (1993).
Bovine adrenal gland extracts are prepared according to the method of Brown et al^6 with minor modifications. […] Two-four adrenals are thawed and the cortices are separated on ice: chopped into small pieces; resuspended in 1.5 volumes of buffer containing 0.25 M sucrose, 50 mM Tris-HCl pH 7.4, 25 mM KCl, 5 mM MgCl2 and protease inhibitors (5 µg/ml leupeptin, 5µg/ml aprotinin, 100 µg/ml bacitracin, and 100 µg/ml benzamidine; homogenized with a Polytron and centrifuged for 5 minutes. The resultant supernatant is saved and centrifuged for 15 minutes. This resultant supernatant is saved and stored as 1 mL aliquots at -80°C. Four adrenals glands are usually sufficient to prepare 30-50 one mL aliquots. Each preparation is tested with standards at different dilutions before use in the following experiment. ^6 B. L. Brown, J. D. M. Albano, R. P. Ekins and A. M. Sgherzi, Biochem. J. 121, 561-562 (1971).
Somatostatin-mediated inhibition of cyclic AMP accumulation is measured in intact cells co-incubated with the diterpene forskalin (5 µM) which activates adenylyl cyclase directly and stimulates cyclic AMP accumulation in cells. The medium is aspirated from two 100 mm plates of cells, a 5 mL portion of phosphate-buffered saline containing 2 mM EDTA is added to each plate. The cells are washed off the plate, without scraping. The cells are then pelleted and resuspended in Kreb's Ringers Phosphate (KRP) containing 2 mM CaCl2 (added fresh), washed once and resuspended in 2 ml of KRP with a CaCl2 containing 100 µM IBMX. The cells are counted and the concentration of cells is adjusted to 50,000/70 µl and incubated 15 minutes at room temperature before starting the assay.
Polypropylene tubes (12 x 75) are labelled (test samples are done in triplicate including controls). Test samples are prepared containing the following: no added peptide sample (basal), forskalin alone (10 µM final), and forskalin plus various amounts of S-14 (1 X 10^-10M to 1 X 10^-6M, final). The first two steps are done on the bench top. Volumes are adjusted with KRP and 10 µl 1 mM IBMX is added to each tube. The tubes are placed in a shaking 37°C water bath and 70 µl cells is added at 15 second intervals until final volume/tube is 100 µL (concentration of cells is 25-100,000/tube). The tubes are incubated for 15 minutes at 37°C, treated with 10 µl of 1.0 N HCl at 10 second intervals and transfered to an ice bath for 3 minutes (tubes may be stored overnight). The samples are neutralized with […] 1.0 N NaOH containing 250 mM Tris, pH 7.4.
The test tube racks are placed half way down in a large chest of ice. A 50µl portion of cyclic AMP standard (Sigma) is aliquoted to each tube in triplicate (e.g. 0, 0.5, 1.0, 2.0, 4.0, 8.0, 16.0 pmoles/tube), then 70µl KRP is added to each tube of standard. One set of tubes containing 220 µl KRP is set up for the background. […]
Turning to `C[C@@H](O)[C@@H]1NC(=O)[C@H](CCCCN)NC(=O)[C@@H](Cc2c[nH]c3ccccc23)NC(=O)[C@H](Cc2ccc(O)cc2)NC(=O)[C@H](NC(=O)[C@@H](N)Cc2ccc([N+](=O)[O-])cc2)CSSC[C@@H](C(=O)N[C@H](Cc2ccc(O)cc2)C(N)=O)NC1=O`, the Emax was 12%. On to `C[C@@H](O)[C@@H]1NC(=O)[C@H](CCCCN)NC(=O)[C@@H](Cc2c[nH]c3ccccc23)NC(=O)[C@H](Cc2ccc(O)cc2)NC(=O)[C@H](NC(=O)[C@@H](N)Cc2ccc([N+](=O)[O-])cc2)CSSC[C@@H](C(=O)N[C@@H](Cc2ccc(O)cc2)C(N)=O)NC1=O`, for which the Emax was 5%. Then `CC(=O)N[C@@H](Cc1ccc([N+](=O)[O-])cc1)C(=O)N[C@@H]1CSSC[C@@H](C(=O)N[C@H](Cc2ccc(O)cc2)C(N)=O)NC(=O)[C@H]([C@@H](C)O)NC(=O)[C@H](CCCCN)NC(=O)[C@@H](Cc2c[nH]c3ccccc23)NC(=O)[C@H](Cc2ccc(O)cc2)NC1=O`, with -3%; and `CC(=O)N[C@@H](Cc1ccc2ccccc2c1)C(=O)N[C@@H]1CSSC[C@@H](C(=O)N[C@@H](Cc2ccc(O)cc2)C(N)=O)NC(=O)[C@H]([C@@H](C)O)NC(=O)[C@H](CCCCN)NC(=O)[C@@H](Cc2c[nH]c3ccccc23)NC(=O)[C@H](Cc2ccc(O)cc2)NC1=O` (Ac-[2Nal][dC]Y[dW]KTCY-NH2; disulfide 2-7 (inferred)), with -26%. In the case of `CC(C)[C@@H]1NC(=O)[C@H](CCCCN)NC(=O)[C@@H](Cc2c[nH]c3ccccc23)NC(=O)[C@H](Cc2ccc(O)cc2)NC(=O)[C@H](NC(=O)[C@@H](N)Cc2ccc3ccccc3c2)CSSC[C@@H](C(=O)N[C@@H](Cc2ccc(O)cc2)C(N)=O)NC1=O` (H-[2Nal][dC]Y[dW]KVCY-NH2; disulfide 2-7; N-terminus assumed), the Emax was 13%. To `CN[C@@H](Cc1ccc([N+](=O)[O-])cc1)C(=O)N[C@@H]1CSSC[C@@H](C(=O)N[C@@H](Cc2ccc(O)cc2)C(N)=O)NC(=O)[C@H](C(C)C)NC(=O)[C@H](CCCCN)NC(=O)[C@@H](Cc2c[nH]c3ccccc23)NC(=O)[C@H](Cc2ccc(O)cc2)NC1=O` (H-[NMePhe(4-NO2)][dC]Y[dW]KVCY-NH2; disulfide 2-7 (inferred)) belongs 9%; to `CC(C)[C@@H]1NC(=O)[C@H](CCCCN)NC(=O)[C@@H](Cc2c[nH]c3ccccc23)NC(=O)[C@H](Cc2ccc(O)cc2)NC(=O)[C@H](NC(=O)[C@@H](N)Cc2ccc([N+](=O)[O-])cc2)CSSC[C@@H](C(=O)N[C@@H](Cc2ccc(O)cc2)C(N)=O)NC1=O` (H-[Phe(4-NO2)][dC]Y[dW]KVCY-NH2; disulfide 2-7 (inferred)), 11%; to `CC(C)[C@@H]1NC(=O)[C@H](CCCCN)NC(=O)[C@@H](Cc2c[nH]c3ccccc23)NC(=O)[C@H](Cc2ccc(O)cc2)NC(=O)[C@H](NC(=O)[C@@H](N)Cc2ccc([N+](=O)[O-])cc2)CSSC[C@@H](C(=O)N[C@@H](Cc2ccc3ccccc3c2)C(N)=O)NC1=O` (H-[Phe(4-NO2)][dC]Y[dW]KVC[2Nal]-NH2; disulfide 2-7 (inferred)), 8%. `CC[C@@H]1NC(=O)[C@H](CCCCN)NC(=O)[C@@H](Cc2c[nH]c3ccccc23)NC(=O)[C@H](Cc2ccc(O)cc2)NC(=O)[C@H](NC(=O)[C@@H](N)Cc2ccc([N+](=O)[O-])cc2)CSSC[C@@H](C(=O)N[C@@H](Cc2ccc(O)cc2)C(N)=O)NC1=O` (H-[Phe(4-NO2)][dC]Y[dW]K[Abu]CY-NH2; disulfide 2-7 (inferred)): the Emax was 21%. To `CC(C)[C@@H]1NC(=O)[C@H](CCCCN)NC(=O)[C@@H](Cc2c[nH]c3ccccc23)NC(=O)[C@H](Cc2ccc(O)cc2)NC(=O)[C@H](NC(=O)[C@H](N)Cc2ccc3ccccc3c2)CSSC[C@@H](C(=O)N[C@@H](Cc2ccc(O)cc2)C(N)=O)NC1=O` (H-[d2Nal][dC]Y[dW]KVCY-NH2; disulfide 2-7) belongs 8%.
